Laboratory results from patent publication US20030040478A1, “Chemotherapy treatment” (priority 2002, published 2003).
Each block holds one compound with its values, some of them ahead of it.

Columns and labels:
irinotecan-treated mice [1] = settings: mouse, in vivo
Procedure: (§1) FIG. 2. (A) Prevalence of positive bacterial aerobic cultures from mesenteric, splenic, and liver homogenates and whole blood. Groups of mice (n=20 mice for each treatment group) were pretreated for 3 days with either saline or h[Gly2]-GLP-2 as shown in FIG. 1A and euthanized 96 hrs after commencing irinotecan treatment (two injections of 280 mg/kg per dose). *=P<0.05, saline versus h[Gly2]-GLP-2 treated mice after irinotecan. […] (B) The leukocyte count in saline- and h[Gly2]-GLP-2 treated control and irinotecan-treated mice. + and *=p<0.05 for saline- and h[Gly2]-GLP-2-treated groups versus irinotecan-treated mice. #=P<0.05, irinotecan-treated mice pretreated with saline versus h[Gly2]-GLP-2.
Microbiology: At various time points following chemotherapy administration, aliquots of whole blood and tissue homogenates obtained using sterile technique were plated on blood agar plates and incubated at 37° C. for 48 hrs.

irinotecan-treated mice [2] = assay: Leukocyte count after irinotecan; type: in vivo, mouse; settings: mice following irinotecan treatment
Procedure: as §1
Leukocyte Count: Whole blood samples were collected in venipuncture tubes containing EDTA and analyzed using an automated whole blood sorter calibrated for mouse samples. Blood smears were performed on all samples to confirm the automated analysis.

[3] = system: irinotecan-treated CD1 mice, jejunum and colon crypts; assay: Crypt survival and cell number per hemi-crypt (histology) after irinotecan; type: in vivo, mouse; settings: small and large intestine following irinotecan; FIGS. 3A-D
Procedure: FIG. 3. Mean crypt survival (A and C) and mean cell number per hemi-crypt (B and D) from the midjejunum (A and B) and colon (C and D) of control and irinotecan-treated CD1 mice administered either saline (vehicle) or h[Gly2]-GLP-2 as a 3 day pretreatment regimen. Dotted lines represent line of best fit for data shown between 60 and 96 h. Five mice per treatment group were euthanized for analysis commencing immediately prior to the first of two injections of irinotecan (280 mg/kg per dose) and at 12 hr intervals up to 96 hrs. Crypt survival was measured along the entire bowel circumference, and the mean cell number per hemi-crypt determined in 50 consecutive intact crypts per animal. *=P<0.05, **=P<0.001, saline versus h[Gly2]-GLP-2 treated mice.
Histological Analysis: Four- to six-micrometer histological cross sections from the intestine of each mouse were cut and stained with hematoxylin and eosin and micrometry was performed as described. Boushey, R. P. et al., Am. J. Physiol. 277: E937-E947, 1999. The number of cells per hemi-crypt column and the number of surviving crypts per circumference were measured in both the small and large intestine at 12 h intervals (n=5 mice per time point) following irinotecan administration as previously described. Wright, N. A. et al., Cell Tissue Kinet. 22: 425-50, 1989; Withers, H. R. et al., Int. J. Radiat. […] All slides were scored in a blinded fashion.

[4] = system: rodents with indomethacin-induced intestinal injury; settings: Boushey et al. 1999, cited from earlier work
[5] = mice following indomethacin-induced intestinal injury
[6] = rodents with indomethacin-induced intestinal injury

bacterial colonies in homogenates (irinotecan-treated mice [1]): No bacterial colonies were detected
Compound: CC[C@H](C)[C@H](NC(=O)[C@H](Cc1ccccc1)NC(=O)[C@H](CC(=O)O)NC(=O)[C@H](CCCNC(=N)N)NC(=O)[C@H](C)NC(=O)[C@H](C)NC(=O)[C@H](CC(C)C)NC(=O)[C@H](CC(N)=O)NC(=O)[C@H](CC(=O)O)NC(=O)[C@H](CC(C)C)NC(=O)[C@@H](NC(=O)[C@@H](NC(=O)[C@H](CC(N)=O)NC(=O)[C@H](CCSC)NC(=O)[C@H](CCC(=O)O)NC(=O)[C@H](CC(=O)O)NC(=O)[C@H](CO)NC(=O)[C@H](Cc1ccccc1)NC(=O)[C@H](CO)NC(=O)CNC(=O)[C@H](CC(=O)O)NC(=O)CNC(=O)[C@@H](N)Cc1c[nH]cn1)[C@@H](C)O)[C@@H](C)CC)C(=O)N[C@@H](CC(N)=O)C(=O)N[C@@H](Cc1c[nH]c2ccccc12)C(=O)N[C@@H](CC(C)C)C(=O)N[C@H](C(=O)N[C@@H](CCC(N)=O)C(=O)N[C@H](C(=O)N[C@@H](CCCCN)C(=O)N[C@H](C(=O)N[C@H](C(=O)N[C@@H](CC(=O)O)C(=O)O)[C@@H](C)O)[C@@H](C)CC)[C@@H](C)O)[C@@H](C)CC [h[Gly2]-GLP-2]

leukocyte count after irinotecan treatment (irinotecan-treated mice [2]): significant leukopenia
Compound: CCc1c2c(nc3ccc(OC(=O)N4CCC(N5CCCCC5)CC4)cc13)-c1cc3c(c(=O)n1C2)COC(=O)[C@]3(O)CC [irinotecan, 7-ethyl-10-[4-(1-piperidino)-1-piperidino] carbonyloxycamptothecin]
number of crypts and number of cells within each crypt [3]: significant reduction in both the number of crypts and in the number of cells within each crypt

Compound: GLP-2: 33 amino acid product of the glucagon gene, an intestinotrophic peptide secreted by enteroendocrine cells (HADGSFSDEMNTILDNLAARDFINWLIQTKITD; Glucagon-like peptide 2; UniProt P01275 146-178, looked up)
bacterial infection in the liver and spleen [4, 5]: decreased bacterial infection in the liver and spleen
circulating bacteremia [4, 5]: markedly reduced circulating bacteremia
epithelial damage [4, 6]: reduces epithelial damage
survival [4, 6]: improves survival
